Tests used:
[1] = molecular target: Fyn (Homo sapiens, UniProt P06241); assay: Kinase assay, Fyn; assay type: biochemical
Procedure: (§1) Kinase activity and compound inhibition are investigated using one or more assay formats. The ATP concentrations for each assay are selected to be close to the Michaelis-Menten constant (KM) for each individual kinase. Dose-response experiments are performed at 10 different inhibitor concentrations in a 384-well plate format. […] Exemplary kinase assays are described below. KDR Assay

[2] = molecular target: T1, KDR (baculovirus expressed human KDR kinase domain D807-V1356) (Homo sapiens, UniProt P35968); assay: biochemical
T1 construct: human KDR kinase domain D807-V1356; host or cells: baculovirus expression system
T1 sequence (P35968 807-1356): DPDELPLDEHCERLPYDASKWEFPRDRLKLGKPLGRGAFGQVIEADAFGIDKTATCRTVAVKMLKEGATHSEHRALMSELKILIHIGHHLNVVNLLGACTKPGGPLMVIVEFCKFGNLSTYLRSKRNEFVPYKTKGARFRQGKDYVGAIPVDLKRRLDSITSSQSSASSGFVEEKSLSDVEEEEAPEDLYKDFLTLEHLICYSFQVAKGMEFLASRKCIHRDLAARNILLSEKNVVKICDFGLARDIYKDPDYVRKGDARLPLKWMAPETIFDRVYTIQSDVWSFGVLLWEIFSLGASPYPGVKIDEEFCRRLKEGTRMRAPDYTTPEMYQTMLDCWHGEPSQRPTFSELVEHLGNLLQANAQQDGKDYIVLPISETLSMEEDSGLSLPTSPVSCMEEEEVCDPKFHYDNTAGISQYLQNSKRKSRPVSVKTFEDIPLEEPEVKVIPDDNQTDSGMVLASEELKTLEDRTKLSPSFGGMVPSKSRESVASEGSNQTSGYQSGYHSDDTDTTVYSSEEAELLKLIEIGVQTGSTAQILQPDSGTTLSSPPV
Method in brief: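 Baculovirus human KDR kinase domain (D807–V1356) with ATP near its KM; 10-point dose-response, 4 h at ambient temperature. Activity taken as percent ATP remaining, detected by luciferase–luciferin chemiluminescence.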

[3] = molecular target: FGFR1 (Homo sapiens, UniProt P11362); assay: Kinase assay, FGFR1 (33P-ATP incorporation or luciferase-coupled ATP consumption); assay type: biochemical
Sequence of FGFR1 (P11362 22-822, species assumed): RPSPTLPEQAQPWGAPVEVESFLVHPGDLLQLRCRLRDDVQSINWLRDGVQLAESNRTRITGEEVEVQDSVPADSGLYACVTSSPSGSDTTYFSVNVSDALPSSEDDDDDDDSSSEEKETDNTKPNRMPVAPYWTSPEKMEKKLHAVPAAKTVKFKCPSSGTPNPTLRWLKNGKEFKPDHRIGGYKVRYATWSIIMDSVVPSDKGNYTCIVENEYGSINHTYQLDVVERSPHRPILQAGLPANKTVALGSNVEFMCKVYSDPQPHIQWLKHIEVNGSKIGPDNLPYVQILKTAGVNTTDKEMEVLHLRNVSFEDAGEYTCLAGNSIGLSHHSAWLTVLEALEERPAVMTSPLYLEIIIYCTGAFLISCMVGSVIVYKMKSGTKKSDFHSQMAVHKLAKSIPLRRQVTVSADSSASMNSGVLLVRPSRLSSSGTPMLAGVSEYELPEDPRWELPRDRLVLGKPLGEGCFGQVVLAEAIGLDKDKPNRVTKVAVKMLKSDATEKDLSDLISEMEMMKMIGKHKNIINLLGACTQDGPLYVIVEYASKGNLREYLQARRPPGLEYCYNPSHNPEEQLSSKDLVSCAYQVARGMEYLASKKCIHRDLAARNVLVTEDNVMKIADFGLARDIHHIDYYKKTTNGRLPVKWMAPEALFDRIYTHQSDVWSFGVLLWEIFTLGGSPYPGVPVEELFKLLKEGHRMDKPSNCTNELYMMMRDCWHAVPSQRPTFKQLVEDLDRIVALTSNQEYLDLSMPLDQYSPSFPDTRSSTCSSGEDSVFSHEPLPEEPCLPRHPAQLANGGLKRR
Procedure: Kinase assays were performed by measurement of incorporation of γ-^33P ATP into immobilized myelin basic protein (MBP). […] Plates were washed 3× with 100 μl TBS. […] Compound dilutions were performed in DMSO and added to assay wells to a final DMSO concentration of 1%. Each data point was measured in duplicate, and at least two duplicate assays were performed for each individual compound determination. Enzyme was added to final concentrations of 10 nM or 20 nM, for example. A mixture of unlabeled ATP and γ-^33P ATP was added to start the reaction (2×10^6 cpm of γ-^33P ATP per well (3000 Ci/mmole) and either 10 μM or 30 μM unlabeled ATP, typically. The reactions were carried out for 1 hour at room temperature with shaking. Plates were washed 7× with TBS, followed by the addition of 50 μl/well scintillation fluid (Wallac). Plates were read using a Wallac Trilux counter. This is only one format of such assays, various other formats are possible, as known to one of ordinary skill in the art.
Tyrosine kinase activity is determined by 1) measurement of kinase-dependent ATP consumption by in the presence of a generic substrate such as, polyglutamic acid, tyrosine, 4:1 (pEY), by luciferase/luciferin-mediated chemiluminescence or; 2) incorporation of radioactive phosphate derived from ^33P-ATP into a generic substrate which has been adsorbed onto the well surface of polystyrene microtiter plates. Phosphorylated substrate products are quantified by scintillation spectrometry.
as §1

[4] = molecular target: IRK (Homo sapiens, UniProt P06213); assay: Kinase assay, IRK; assay type: biochemical
Procedure: as §1

[5] = molecular target: EGFR (Homo sapiens, UniProt P00533); assay: Kinase assay, EGFR (33P-ATP incorporation or luciferase-coupled ATP consumption); assay type: biochemical
Method in brief: (§2)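 Kinase activity measured either by γ-33P ATP incorporation into immobilized substrate (MBP or pEY) with scintillation counting, or by luciferase-based ATP consumption with pEY. Enzyme 10 or 20 nM; ATP near each kinase's KM (e.g. 10 or 30 μM); 1 h at room temperature, 1% DMSO, 10-point dose-response.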

[6] = molecular target: Flt-1 (Homo sapiens, UniProt P17948); assay: Kinase assay, Flt-1 (33P-ATP incorporation or luciferase-coupled ATP consumption); assay type: biochemical; conditions: read-out: Flt1 IC50
Sequence of Flt-1 (P17948 27-1338, species assumed): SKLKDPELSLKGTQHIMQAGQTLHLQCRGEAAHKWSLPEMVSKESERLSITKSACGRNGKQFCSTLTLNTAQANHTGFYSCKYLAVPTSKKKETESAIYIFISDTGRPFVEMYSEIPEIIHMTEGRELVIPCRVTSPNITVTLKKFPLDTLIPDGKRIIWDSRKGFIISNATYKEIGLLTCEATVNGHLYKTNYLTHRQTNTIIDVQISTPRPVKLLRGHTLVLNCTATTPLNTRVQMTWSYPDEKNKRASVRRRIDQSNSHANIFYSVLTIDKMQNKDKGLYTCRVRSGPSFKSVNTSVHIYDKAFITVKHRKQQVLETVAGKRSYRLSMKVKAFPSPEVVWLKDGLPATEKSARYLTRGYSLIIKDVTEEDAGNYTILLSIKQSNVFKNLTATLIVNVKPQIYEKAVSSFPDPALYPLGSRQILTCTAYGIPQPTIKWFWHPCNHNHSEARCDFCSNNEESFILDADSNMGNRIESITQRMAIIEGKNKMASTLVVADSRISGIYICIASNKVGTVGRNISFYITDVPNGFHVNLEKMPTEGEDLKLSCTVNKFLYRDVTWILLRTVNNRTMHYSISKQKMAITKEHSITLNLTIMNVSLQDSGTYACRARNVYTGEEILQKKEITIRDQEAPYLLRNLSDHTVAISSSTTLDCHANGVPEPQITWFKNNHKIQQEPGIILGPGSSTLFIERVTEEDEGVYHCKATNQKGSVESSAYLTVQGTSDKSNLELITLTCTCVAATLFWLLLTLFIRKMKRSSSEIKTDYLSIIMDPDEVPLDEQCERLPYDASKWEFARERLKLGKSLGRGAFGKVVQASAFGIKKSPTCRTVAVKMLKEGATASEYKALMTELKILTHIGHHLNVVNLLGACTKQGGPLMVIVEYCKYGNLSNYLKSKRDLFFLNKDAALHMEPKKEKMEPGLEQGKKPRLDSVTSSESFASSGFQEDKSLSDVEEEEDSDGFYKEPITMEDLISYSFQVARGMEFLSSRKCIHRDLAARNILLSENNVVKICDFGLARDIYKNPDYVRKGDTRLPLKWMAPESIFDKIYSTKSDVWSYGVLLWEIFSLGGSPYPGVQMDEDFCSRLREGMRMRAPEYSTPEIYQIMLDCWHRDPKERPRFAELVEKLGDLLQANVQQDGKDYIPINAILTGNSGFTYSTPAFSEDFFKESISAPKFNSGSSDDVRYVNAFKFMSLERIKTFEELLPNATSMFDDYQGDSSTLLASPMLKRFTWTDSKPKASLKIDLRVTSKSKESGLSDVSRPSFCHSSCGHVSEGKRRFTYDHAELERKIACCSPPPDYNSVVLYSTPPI
Method in brief: as §2

[7] = molecular target: PDGFR alpha (Homo sapiens, UniProt P16234); assay: Kinase assay, PDGFR alpha (33P-ATP incorporation or luciferase-coupled ATP consumption); assay type: biochemical; conditions: read-out: PDGF-R-A IC50
Method in brief: as §2

[8] = molecular target: EphA2 (Homo sapiens, UniProt P29317); assay: Kinase assay, EphA2 (33P-ATP incorporation or luciferase-coupled ATP consumption); assay type: biochemical
Sequence of EphA2 (P29317 24-976, species assumed): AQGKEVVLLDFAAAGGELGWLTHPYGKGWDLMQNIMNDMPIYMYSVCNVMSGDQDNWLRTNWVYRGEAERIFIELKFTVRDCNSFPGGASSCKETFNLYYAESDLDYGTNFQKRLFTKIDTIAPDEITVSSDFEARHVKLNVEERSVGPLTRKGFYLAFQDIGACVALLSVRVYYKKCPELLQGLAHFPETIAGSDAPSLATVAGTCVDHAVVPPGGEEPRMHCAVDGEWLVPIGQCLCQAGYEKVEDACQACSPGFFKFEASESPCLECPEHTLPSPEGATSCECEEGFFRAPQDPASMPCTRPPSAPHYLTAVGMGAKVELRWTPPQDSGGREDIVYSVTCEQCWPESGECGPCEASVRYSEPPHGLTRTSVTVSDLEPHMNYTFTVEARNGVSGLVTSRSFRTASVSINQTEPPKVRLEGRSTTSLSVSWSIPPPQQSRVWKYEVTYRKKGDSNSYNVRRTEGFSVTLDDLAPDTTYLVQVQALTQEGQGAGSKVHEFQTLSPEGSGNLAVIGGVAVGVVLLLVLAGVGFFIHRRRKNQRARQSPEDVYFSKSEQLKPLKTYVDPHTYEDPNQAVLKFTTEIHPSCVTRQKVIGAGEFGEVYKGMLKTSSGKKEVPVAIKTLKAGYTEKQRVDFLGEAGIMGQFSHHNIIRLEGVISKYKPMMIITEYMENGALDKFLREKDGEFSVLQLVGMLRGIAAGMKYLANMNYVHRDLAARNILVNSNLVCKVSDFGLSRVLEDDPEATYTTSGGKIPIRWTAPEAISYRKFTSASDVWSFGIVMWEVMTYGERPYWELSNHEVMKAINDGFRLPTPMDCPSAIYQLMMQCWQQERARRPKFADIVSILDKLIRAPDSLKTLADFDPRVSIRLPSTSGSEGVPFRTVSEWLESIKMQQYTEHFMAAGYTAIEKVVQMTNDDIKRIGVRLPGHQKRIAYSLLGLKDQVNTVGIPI
Method in brief: as §2

Sequence of Fyn (P06241 whole entry, species assumed): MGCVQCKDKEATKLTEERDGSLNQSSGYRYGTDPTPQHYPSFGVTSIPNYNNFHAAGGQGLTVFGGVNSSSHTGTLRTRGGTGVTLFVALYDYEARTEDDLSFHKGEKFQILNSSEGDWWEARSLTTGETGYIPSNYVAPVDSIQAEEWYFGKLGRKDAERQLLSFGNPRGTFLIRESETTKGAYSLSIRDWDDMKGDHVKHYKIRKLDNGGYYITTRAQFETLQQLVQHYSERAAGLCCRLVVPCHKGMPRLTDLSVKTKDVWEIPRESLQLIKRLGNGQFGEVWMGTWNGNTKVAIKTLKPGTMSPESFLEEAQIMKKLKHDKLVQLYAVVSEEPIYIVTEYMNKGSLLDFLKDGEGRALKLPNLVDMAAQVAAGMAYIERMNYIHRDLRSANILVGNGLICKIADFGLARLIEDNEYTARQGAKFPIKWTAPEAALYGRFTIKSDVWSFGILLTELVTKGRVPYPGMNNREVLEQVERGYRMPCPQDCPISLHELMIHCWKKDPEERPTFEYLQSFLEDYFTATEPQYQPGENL

| IC50 [1] | IC50 [2] | IC50 [3] | IC50 [4] | IC50 [5] | IC50 [6] | IC50 [7] | IC50 [8] | SMILES |
| --- | --- | --- | --- | --- | --- | --- | --- | --- |
| < 50 nM | < 50 nM | < 50 nM | 50 to 500 nM | 50 to 500 nM | < 50 nM | < 50 nM | 50 to 500 nM | CCN1CCC(Nc2ccc3c(c2)/C(=C(\c2cccc(Cl)c2)c2nc4ccccc4[nH]2)C(=O)N3)CC1 [Entry 27, (3Z)-3-[1H-benzimidazol-2-yl(3-chlorophenyl)methylidene]-5-[(1-ethylpiperidin-4-yl)amino]-1,3-dihydro-2H-indol-2-one] |
| < 50 nM | < 50 nM | 50 to 500 nM | 500 to 5000 nM | 500 to 5000 nM | 50 to 500 nM | < 50 nM | 500 to 5000 nM | CCN1CCC(Oc2ccc3c(c2)/C(=C(\c2cc(F)cc(F)c2)c2nc4ccccc4[nH]2)C(=O)N3)CC1 [Entry 33, (3Z)-3-[1H-benzimidazol-2-yl(3,5-difluorophenyl)methylidene]-5-[(1-ethylpiperidin-4-yl)oxy]-1,3-dihydro-2H-indol-2-one] |
| < 50 nM | < 50 nM | < 50 nM | 500 to 5000 nM | 500 to 5000 nM | 50 to 500 nM | < 50 nM | 500 to 5000 nM | CCN1CCC(Oc2ccc3c(c2)/C(=C(\c2cccc(Cl)c2)c2nc4ccccc4[nH]2)C(=O)N3)CC1 [Entry 35, (3Z)-3-[1H-benzimidazol-2-yl(3-chlorophenyl)methylidene]-5-[(1-ethylpiperidin-4-yl)oxy]-1,3-dihydro-2H-indol-2-one] |
| < 50 nM | < 50 nM | 50 to 500 nM | 500 to 5000 nM | 500 to 5000 nM | 500 to 5000 nM | < 50 nM | 500 to 5000 nM | COCCN1CCC(Oc2ccc3c(c2)/C(=C(\c2cc(F)cc(F)c2)c2nc4ccccc4[nH]2)C(=O)N3)CC1 [Entry 36, (3Z)-3-[1H-benzimidazol-2-yl(3,5-difluorophenyl)methylidene]-5-({1-[2-(methyloxy)ethyl]piperidin-4-yl}oxy)-1,3-dihydro-2H-indol-2-one] |
| < 50 nM | < 50 nM | 50 to 500 nM | 500 to 5000 nM | 50 to 500 nM | 500 to 5000 nM | < 50 nM | 500 to 5000 nM | COCCN1CCC(Oc2ccc3c(c2)/C(=C(\c2cccc(Cl)c2)c2nc4ccccc4[nH]2)C(=O)N3)CC1 [Entry 37, (3Z)-3-[1H-benzimidazol-2-yl(3-chlorophenyl)methylidene]-5-({1-[2-(methyloxy)ethyl]piperidin-4-yl)oxy)-1,3-dihydro-2H-indol-2-one] |
| < 50 nM | < 50 nM | < 50 nM | 500 to 5000 nM | 500 to 5000 nM | 50 to 500 nM | < 50 nM | 500 to 5000 nM | COCCN1CCC(Nc2ccc3c(c2)/C(=C(\c2cccc(OC)c2)c2nc4ccccc4[nH]2)C(=O)N3)CC1 [Entry 39, (3Z)-3-{1H-benzimidazol-2-yl[3-(methyloxy)phenyl]methylidene}-5-({1-[2-(methyloxy)ethyl]piperidin-4-yl}amino)-1,3-dihydro-2H-indol-2-one] |
| < 50 nM | < 50 nM | < 50 nM | > 5000 nM | 50 to 500 nM | 50 to 500 nM | < 50 nM | 500 to 5000 nM | COCCN1CCC(Nc2ccc3c(c2)/C(=C(\c2cc(F)cc(F)c2)c2nc4ccccc4[nH]2)C(=O)N3)CC1 [Entry 42] |
| < 50 nM | < 50 nM | 50 to 500 nM | 500 to 5000 nM | 50 to 500 nM | < 50 nM | < 50 nM | 500 to 5000 nM | CCN1CCC(Nc2ccc3c(c2)/C(=C(\c2ccc(Cl)cc2)c2nc4ccccc4[nH]2)C(=O)N3)CC1 [Entry 45, (3Z)-3-[1H-benzimidazol-2-yl(4-chlorophenyl)methylidene]-5-[(1-ethylpiperidin-4-yl)amino]-1,3-dihydro-2H-indol-2-one] |

Continued, compound first:

| SMILES | IC50 [1] | IC50 [2] | IC50 [3] | IC50 [4] | IC50 [5] | IC50 [6] | IC50 [7] | IC50 [8] |
| --- | --- | --- | --- | --- | --- | --- | --- | --- |
| CCN1CCC(Nc2ccc3c(c2)/C(=C(\c2cccc(OC)c2)c2nc4ccccc4[nH]2)C(=O)N3)CC1 [Entry 26, (3Z)-3-{1H-benzimidazol-2-yl [3-(methyloxy)phenyl]methylidene}-5-[(1-ethylpiperidin-4-yl)amino]-1,3-dihydro-2H-indol-2-one] | < 50 nM | < 50 nM | < 50 nM | 500 to 5000 nM | 50 to 500 nM | < 50 nM | < 50 nM | 500 to 5000 nM |
| CCN1CCC(Oc2ccc3c(c2)/C(=C(\c2cccc(OC)c2)c2nc4ccccc4[nH]2)C(=O)N3)CC1 [Entry 32, (3Z)-3-{1H-benzimidazol-2-yl[3-(methyloxy)phenyl]methylidene}-5-[(1-ethylpiperidin-4-yl)oxy]-1,3-dihydro-2H-indol-2-one] | < 50 nM | < 50 nM |  | 500 to 5000 nM | 500 to 5000 nM | 50 to 500 nM | < 50 nM | 500 to 5000 nM |
| O=C1Nc2ccc(OC3CCN(Cc4ccccc4)CC3)cc2/C1=C(\c1ccccc1)c1nc2ccccc2[nH]1 [Entry 34, (3Z)-3-[1H-benzimidazol-2-yl(phenyl)methylidene]-5-{(1-(phenylmethyl)piperidin-4-yl]oxy}-1,3-dihydro-2H-indol-2-one] | < 50 nM | < 50 nM |  | 500 to 5000 nM | 500 to 5000 nM | 500 to 5000 nM | < 50 nM | 500 to 5000 nM |
| COCCN1CCC(Nc2ccc3c(c2)/C(=C(\c2cccc(Cl)c2)c2nc4ccccc4[nH]2)C(=O)N3)CC1 [Entry 38, (3Z)-3-[1H-benzimidazol-2-yl(3-chlorophenyl)methylidene]-5-({1-[2-(methyloxy)ethyl]piperidin-4-yl}amino)-1,3-dihydro-2H-indol-2-one] | < 50 nM | < 50 nM | < 50 nM | 500 to 5000 nM | 500 to 5000 nM | 50 to 500 nM | < 50 nM | 500 to 5000 nM |
| COCCN1CCC(Nc2ccc3c(c2)/C(=C(\c2cccc(Cl)c2)c2ncc[nH]2)C(=O)N3)CC1 [Entry 40, (3Z)-3-[(3-chlorophenyl)(1H-imidazol-2-yl)methylidene]-5-({1-[2-(methyloxy)ethyl]piperidin-4-yl}amino)-1,3-dihydro-2H-indol-2-one] | < 50 nM | < 50 nM | < 50 nM | 500 to 5000 nM | 500 to 5000 nM | 50 to 500 nM | < 50 nM | 500 to 5000 nM |
| CCN1CCC(N(C)c2ccc3c(c2)/C(=C(\c2cccc(Cl)c2)c2nc4ccccc4[nH]2)C(=O)N3)CC1 [Entry 43] | 50 to 500 nM | < 50 nM | 50 to 500 nM | 500 to 5000 nM | 500 to 5000 nM | 500 to 5000 nM | 50 to 500 nM | 500 to 5000 nM |
| CCN1CCC(Oc2ccc3c(c2)/C(=C(\c2cccc(Cl)c2)c2ncc[nH]2)C(=O)N3)CC1 [Entry 44, (3Z)-3-[(3-chlorophenyl)(1H-imidazol-2-yl)methylidene]-5-[(1-ethylpiperidin-4-yl)oxy]-1,3-dihydro-2H-indol-2-one] | 50 to 500 nM | < 50 nM | 50 to 500 nM | 500 to 5000 nM | 500 to 5000 nM | 500 to 5000 nM | 50 to 500 nM | 500 to 5000 nM |

— US7626031B2, “Substituted 3-(diarylmethylene)indolin-2-ones and methods of their use” (Symphony Evolution, Inc., priority 2002, dated 2009)
